Data on 18 compounds can be found in patent US12509474B2, “Inhibitors of complement factors and uses thereof” (Annexon, Inc., priority 2020, dated 2025).

Where a name gives a salt, the structure may show the parent alone.

In the first assay the target is T1, human C1s protein (Homo sapiens, UniProt P09871).
T1 construct: A104
T1 sequence (P09871 16-688): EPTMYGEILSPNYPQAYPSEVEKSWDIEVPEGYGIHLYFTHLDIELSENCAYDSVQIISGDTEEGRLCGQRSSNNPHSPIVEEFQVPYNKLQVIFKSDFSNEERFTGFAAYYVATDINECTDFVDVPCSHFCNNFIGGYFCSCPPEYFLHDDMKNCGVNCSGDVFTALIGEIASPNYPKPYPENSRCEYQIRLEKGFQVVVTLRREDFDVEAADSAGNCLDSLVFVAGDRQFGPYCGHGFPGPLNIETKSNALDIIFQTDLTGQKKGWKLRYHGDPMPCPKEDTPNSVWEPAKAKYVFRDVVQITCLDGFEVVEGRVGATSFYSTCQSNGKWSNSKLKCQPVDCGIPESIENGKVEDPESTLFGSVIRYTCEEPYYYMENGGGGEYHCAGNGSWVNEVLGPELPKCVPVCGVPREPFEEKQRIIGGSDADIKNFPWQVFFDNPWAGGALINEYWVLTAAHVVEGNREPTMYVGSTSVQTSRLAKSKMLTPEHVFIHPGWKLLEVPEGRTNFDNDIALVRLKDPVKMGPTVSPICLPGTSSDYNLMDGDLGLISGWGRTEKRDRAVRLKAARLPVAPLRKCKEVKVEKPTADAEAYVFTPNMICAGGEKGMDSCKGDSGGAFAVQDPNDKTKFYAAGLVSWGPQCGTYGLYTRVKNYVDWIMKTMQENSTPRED
Description: C1s enzymatic assay (hydrolysis of YLGR-Rh110-dPro). The settings on record: substrate YLGR-Rh110-dPro 20 μM, 15 min pre-incubation, 60 min RT, fluorescence. It counts as biochemical. On the procedure: Compound Testing in the C1s Enzymatic Assay
The enzyme cleaves the substrate with the release of Rh110 which is highly fluorescent. C1s inhibitors prevent the hydrolysis of the substrate thus resulting in a decrease of the signal.
On the day of the experiment 0.1 mg/mL BSA (Sigma, B4287) is added fresh to the buffer. The test item stock solutions are serially diluted 1:3 or 1:4 or 1:5 with DMSO, 11-point curves, in a 384-well compound plate. Nafamostat concentration curve is always included in the assay plate as a reference control.
The high controls are prepared dispensing in 0.25 μL DMSO in column 23, rows AH or AP and low controls with 0.25 μL of 0.1 M Nafamostat. […] The YLGR-Rh110-dPro substrate is prepared as 2× of the final assay concentration of 20 μM. 1/well of 2× enzyme solution is dispensed and pre-incubated for 15 min with the compounds. The enzymatic reaction is then started with 5 μL/well of the 2× substrate solution.
Turning to “7-(1-hydroxy-3-prop-2-enyl-3,4-dihydro-2,1-benzoxazonin-7-yl)cinnolin-4-amine [Example 148]”, the “hC1s pIC50” value was 8.64.
As to “7-(3-cyclopropyl-1-hydroxy-3,4-dihydro-2,1-benzoxazonin-7-yl)cinnolin-4-amine [Example 147]”, the “hC1s pIC50” value came out at 8.38.

Still in this assay, the particulars now being: substrate YLGR-Rh110-dPro 20 μM, 15 min pre-incubation, 60 min RT, fluorescence, read-out: hC1s pIC50 (converted).
For `Cc1nnc(N)c2ccc(-c3ccc4c(c3)B(O)OC(C)C4)cc12` (single isomer, unassigned) [Example 72, 6-(1-hydroxy-3-methyl-3,4-dihydro-2,1-benzoxazonin-7-yl)-4-methylphthalazin-1-amine], the IC50 was 1.02 nM.
Still for that read-out and setting: the same measure for `Cc1nnc(N)c2ccc(-c3ccc4c(c3)B(O)OC(C)C4)cc12` (single isomer, unassigned) [Example 73, 6-(1-hydroxy-3-methyl-3,4-dihydro-2,1-benzoxazonin-7-yl)-4-methylphthalazin-1-amine]: 0.912 nM; for `CC1Cc2ccc(-c3ccc4c(N)cnnc4c3)cc2B(O)O1` (single isomer, unassigned) [Example 94]: 1.91 nM; for `CC1Cc2ccc(-c3ccc4c(N)cnnc4c3)cc2B(O)O1` (single isomer, unassigned) [Example 95]: 3.55 nM.
Same read-out and setting: as for `CC(C)C1Cc2ccc(-c3ccc4c(N)cnnc4c3)cc2B(O)O1` (single isomer, unassigned) [Example 152], the figure is 3.09 nM; as for `CC(C)C1Cc2ccc(-c3ccc4c(N)cnnc4c3)cc2B(O)O1` (single isomer, unassigned) [Example 153], 1.66 nM.
Take `Nc1cnnc2cc(-c3cc(B(O)O)ccc3OCC3CNC(=O)C3)ccc12` (single isomer, unassigned) [Example 154, [3-(4-aminocinnolin-7-yl)-4-[(5-oxopyrrolidin-3-yl)methoxy]phenyl]boronic Acid]: the IC50 is 1.78 nM.
The same measure, in the same setting: as for `Nc1cnnc2cc(-c3cc(B(O)O)ccc3OCC3CNC(=O)C3)ccc12` (single isomer, unassigned) [Example 155, [3-(4-aminocinnolin-7-yl)-4-[(5-oxopyrrolidin-3-yl)methoxy]phenyl]boronic Acid], the figure is 3.89 nM; as for `Cc1nnc(N)c2ccc(-c3cc(B(O)O)ccc3NC(=O)C3CC(F)(F)CN3)cc12` (stereo in doubt) [Example 81, [3-(1-amino-4-methylphthalazin-6-yl)-4-[[(2S)-4,4-difluoropyrrolidine-2-carbonyl]amino]phenyl]boronic Acid], 4.57 nM; as for `Nc1nncc2cc(-c3cccc(B(O)O)c3)ccc12` [Example 1, [3-(1-aminophthalazine-6-yl)phenyl]boronic Acid], 1.17 nM.
`COc1ccc(B(O)O)cc1-c1ccc2c(N)nncc2c1` [Example 2, [3-(1-aminophthalazin-6-yl)-4-methoxyphenyl]boronic Acid Formic Acid Salt]: the IC50 is 6.31 nM.
Turning to `Cc1nnc(N)c2ccc(-c3cccc(B(O)O)c3)cc12` [Example 4, [3-(1-amino-4-methylphthalazin-6-yl)phenyl]boronic Acid], the IC50 was 1.51 nM.
Same read-out and setting: as for `COc1ccc(B(O)O)cc1-c1ccc2c(N)cnnc2c1` [Example 5, [3-(4-aminocinnolin-7-yl)-4-methoxyphenyl]boronic Acid], the figure is 0.589 nM; as for `COc1ccc(B(O)O)cc1-c1ccc2c(N)nnc(C)c2c1` [Example 7, [3-(1-amino-4-methylphthalazin-6-yl)-4-methoxyphenyl]boronic Acid Formic Acid Salt], 0.891 nM; as for `COCCOCCOCCOCCOCCOCCOc1ccc(B(O)O)cc1-c1ccc2c(N)cnnc2c1` [Example 8, [3-(4-aminocinnolin-7-yl)-4-[2-[2-[2-[2-[2-(2-methoxyethoxy)ethoxy]ethoxy]ethoxy]ethoxy]ethoxy]phenyl]boronic Acid], 3.09 nM.
Still for that read-out and setting: as for `CC(C)c1nnc(N)c2ccc(-c3cccc(B(O)O)c3)cc12` [Example 9, [3-(1-amino-4-propan-2-ylphthalazin-6-yl)phenyl]boronic Acid Hydrochloric Acid Salt], the figure is 513 nM.
